We go through two compounds from patent publication US8158630B2, “Application of 2,5 -dihydroxymethyl-3,6-dimethyl pyrazine and its derivates in pharmacy” (Nanjing University of Chinese Medicine, priority 2010, dated 2012).

For series [1], the system named is isolated hearts of rats. Put plainly: Effects on the cardiac contractility of isolated hearts of rats (Langendorff perfusion). More on the design: species or system rat. The conditions noted are these: 0.1 mmol/L; for heart dysrhythmia / +dp/dtmax (maximum value of left ventricular pressure increase) / Heart rate / LVEDP (left ventricular diastolic pressure) / LVSP (left ventricular systolic pressure) / −dp/dtmax (maximum value of left ventricular pressure decrease): isolated rat heart; for +dp/dtmax (maximum value of left ventricular pressure increase) / Heart rate / LVEDP (left ventricular diastolic pressure) / LVSP (left ventricular systolic pressure) / −dp/dtmax (maximum value of left ventricular pressure decrease): after administration. Here is the method:
Intraperitoneal injection of 1.2 g/kg urethane is carried out on rats and the hearts are collected. After the hearts are rinsed and cut in 100% oxygen saturated physiological saline at 0° C., they are connected to modified Langendorff heart perfusion equipments to couduct retrogressive perfusion via the aorta. The perfusate (in mmol/L) is NaCl 117, KCl 5.7, CaCl2 1.8, NaHCO3 4.4, NaH2PO4 1.5, MgCl2 1.7, HEPES 20, Glucose 11, Creatine 10, Taurine 20, and NaOH is used to adjust the pH value to 7.3. The probe of the pressure receptor is inserted into the left ventricle via the left auricle, and BioAmp amplifier is used to record the left ventricular pressure, and the electrocardiogram is measured at the same time.

In series [2] the test system is normal rats. As to the kind of experiment: Effects on heart functions and hemodynamics of normal rats, intravenous administration. The format is in vivo, rat. The conditions noted are these: for LVEDP / LVSP / +dp/dtmax / −dp/dtmax: normal rats, within one minute after administration, n = 10; for +dp/dtmax / −dp/dtmax: in mmHg/s (unit assumed). Here is the method:
After the rats are paralysed with 20% ethyl urethane (urethane) (1 g/kg) and fixed on a thermostatical operation table on their backs, needle-electrodes for electrocardiogram are subcutaneously inserted from their extremities and the lead II […] (ECG) and the heart rate (HR) are measured by inputting into the multiplying channel device. The right common carotid artery is isolated from the inner side of sternocleidomastoid muscle after the […] and temperature (37° C.) become stable, and the right common carotid artery is ligated at its head end and left ventricular cannulation is carried out. It is connected with the polygraph via a pressure transducer to measure the heart function indexes of left ventricle, in the meantime, the right femoral vein is isolated and venous cannulation is carried out for the intravenous administration, and the non-inserted end is connected to a syringe that is filled with 40 IU/mL heparin physiological saline, the multi-channel physiological signal acquisition and processing system is used to record the data. After the measured indexes become stable, the data at one minute before the drug administration are recorded as the blank control, and Liguzinediol is dissolved in physiological saline and then use 5, 10 and 20 mg/kg respectively as the low, mediate and high dosage groups, and the results within one minute after the intravenous administration are shown in Table 2. The heart rate aberration that is induced by Liguzinediol is not found in the three dosage groups after administration.

Turning to `CC(=O)OCc1nc(C)c(COC(C)=O)nc1C` [Compound 1, 2,5-diacetoxymethyl-3,6-dimethyl pyrazine], in series [1], the “cardiac contractility of isolated hearts of rats” value is “significantly increase”, the heart dysrhythmia result is “no heart dysrhythmia is found”, the “+dp/dtmax (maximum value of left ventricular pressure increase)” value was 831.9 ± 268.2 and the Heart rate is reported as 191.6 ± 58.0^Δ. In series [1], the “LVEDP (left ventricular diastolic pressure)” value was −14.4 ± 7.2, the “LVSP (left ventricular systolic pressure)” value worked out at 26.1 ± 12.5 and the “−dp/dtmax (maximum value of left ventricular pressure decrease)” value was −884.9 ± 347.0.

Take `Cc1nc(CO)c(C)nc1CO` [Compound 2, 2,5-dihydroxymethyl-3,6-dimethyl pyrazine]: in series [1], the “cardiac contractility of isolated hearts of rats” value is “significantly increase”, the heart dysrhythmia entry is “no heart dysrhythmia is found”, the “+dp/dtmax (maximum value of left ventricular pressure increase)” value is on record as 790.3 ± 251.6 and the Heart rate is reported as 154.4 ± 28.8^Δ. In series [1], the “LVEDP (left ventricular diastolic pressure)” value is reported as −13.0 ± 2.3, the “LVSP (left ventricular systolic pressure)” value is 26.9 ± 5.9 and the “−dp/dtmax (maximum value of left ventricular pressure decrease)” value was −763.5 ± 188.0. Moreover, in series [2] (5 mg/kg i.v.), the LVEDP came to 7.9 ± 6.3, the LVSP is reported as 132.7 ± 9.1, the “+dp/dtmax” value came out at 12027 ± 1388 and the “−dp/dtmax” value is recorded as −10238 ± 1247. In addition, in series [2] (10 mg/kg i.v.), the LVEDP is given as 6.9 ± 6.1, the LVSP is listed as 135.7 ± 10.9, the “+dp/dtmax” value is reported as 11484 ± 1410 and the “−dp/dtmax” value is given as −9667 ± 670. Further, in series [2] (20 mg/kg i.v.), the LVEDP is 6.3 ± 4.8, the LVSP is reported as 139.7 ± 4.6, the “+dp/dtmax” value was determined as 12347 ± 1030 and the “−dp/dtmax” value is given as −9964 ± 1045. Moreover, the “left ventricular contraction and diastolic function of rat heart” value in series [2] (rats, 5, 10 and 20 mg/kg i.v.) was “significantly increase the left ventricular contraction and improve the diastolic function”. Moreover, the heart rate aberration result in series [2] (rats, 5, 10 and 20 mg/kg i.v., after administration) is on record as “not found”.
